Laboratory results reported in patent US11459323B2, “Monocyclic β-lactam compound for treating bacterial infection” (MEDSHINE DISCOVERY INC., priority 2018, dated 2022).
≈ marks a conversion by molar mass, not a printed value.

What was measured:
Experiment in all cases: MIC on clinically isolated bacteria
Format in all cases: cell-based
[1] = tested on: Acinetobacter baumannii C357; conditions: Acinetobacter baumannii C357; read-out: Minimum Inhibitory Concentration (MIC)
From the text: (§1) Twenty-five strains of clinically isolated Acinetobacter baumannii and twenty-seven strains of Pseudomonas aeruginosa were respectively selected and used to determine the minimum inhibitory concentration (MIC) of the compounds by micro-liquid dilution method according to the Institute of Clinical and Laboratory Standard (CLSI) requirements.

[2] = tested on: Pseudomonas aeruginosa W23; conditions: read-out: MIC
From the text: as §1

[3] = tested on: Pseudomonas aeruginosa C762; conditions: read-out: MIC
From the text: as §1

[4] = tested on: Pseudomonas aeruginosa W13; conditions: read-out: MIC
From the text: as §1

[5] = tested on: Acinetobacter baumannii C281; conditions: Acinetobacter baumannii C281; read-out: Minimum Inhibitory Concentration (MIC)
From the text: as §1

[6] = tested on: Acinetobacter baumannii C241; conditions: Acinetobacter baumannii C241; read-out: Minimum Inhibitory Concentration (MIC)
From the text: as §1

[7] = tested on: Acinetobacter baumannii C333; conditions: Acinetobacter baumannii C333; read-out: Minimum Inhibitory Concentration (MIC)
From the text: as §1

[8] = tested on: Acinetobacter baumannii C279; conditions: Acinetobacter baumannii C279; read-out: Minimum Inhibitory Concentration (MIC)
From the text: as §1

[9] = tested on: Pseudomonas aeruginosa W27; conditions: read-out: MIC
From the text: as §1

[10] = tested on: Pseudomonas aeruginosa W9; conditions: read-out: MIC
From the text: as §1

[11] = tested on: Pseudomonas aeruginosa M4; conditions: read-out: MIC
From the text: as §1

[12] = tested on: Pseudomonas aeruginosa W1; conditions: read-out: MIC
From the text: as §1

[13] = tested on: Acinetobacter baumannii C328; conditions: Acinetobacter baumannii C328; read-out: Minimum Inhibitory Concentration (MIC)
From the text: as §1

[14] = tested on: Pseudomonas aeruginosa W29; conditions: read-out: MIC
From the text: as §1

[15] = tested on: Pseudomonas aeruginosa C755; conditions: read-out: MIC
From the text: as §1

[16] = tested on: Acinetobacter baumannii C402; conditions: Acinetobacter baumannii C402; read-out: Minimum Inhibitory Concentration (MIC)
From the text: as §1

[17] = tested on: Acinetobacter baumannii C181; conditions: Acinetobacter baumannii C181; read-out: Minimum Inhibitory Concentration (MIC)
From the text: as §1

[18] = tested on: Acinetobacter baumannii C283; conditions: Acinetobacter baumannii C283; read-out: Minimum Inhibitory Concentration (MIC)
From the text: as §1

[19] = tested on: Pseudomonas aeruginosa C763; conditions: read-out: MIC
From the text: as §1

[20] = tested on: Acinetobacter baumannii C394; conditions: Acinetobacter baumannii C394; read-out: Minimum Inhibitory Concentration (MIC)
From the text: as §1

[21] = tested on: Acinetobacter baumannii C330; conditions: Acinetobacter baumannii C330; read-out: Minimum Inhibitory Concentration (MIC)
From the text: as §1

[22] = tested on: Acinetobacter baumannii C408; conditions: Acinetobacter baumannii C408; read-out: Minimum Inhibitory Concentration (MIC)
From the text: as §1

[23] = tested on: Acinetobacter baumannii C403; conditions: Acinetobacter baumannii C403; read-out: Minimum Inhibitory Concentration (MIC)
From the text: as §1

[24] = tested on: Acinetobacter baumannii C312; conditions: Acinetobacter baumannii C312; read-out: Minimum Inhibitory Concentration (MIC)
From the text: as §1

[25] = tested on: Pseudomonas aeruginosa W6; conditions: read-out: MIC
From the text: as §1

[26] = tested on: Acinetobacter baumannii C361; conditions: Acinetobacter baumannii C361; read-out: Minimum Inhibitory Concentration (MIC)
From the text: as §1

[27] = tested on: Aeruginosa ATCC27853; conditions: Pseudomonas aeruginosa; Aeruginosa ATCC27853; read-out: MIC
From the text: as §1

[28] = tested on: Acinetobacter baumannii C390; conditions: Acinetobacter baumannii C390; read-out: Minimum Inhibitory Concentration (MIC)
From the text: as §1

[29] = tested on: Acinetobacter baumannii C313; conditions: Acinetobacter baumannii C313; read-out: Minimum Inhibitory Concentration (MIC)
From the text: as §1

[30] = tested on: Pseudomonas aeruginosa W35; conditions: read-out: MIC
From the text: as §1

[31] = tested on: Acinetobacter baumannii C315; conditions: Acinetobacter baumannii C315; read-out: Minimum Inhibitory Concentration (MIC)
From the text: as §1

[32] = tested on: Pseudomonas aeruginosa C745; conditions: read-out: MIC
From the text: as §1

[33] = tested on: Pseudomonas aeruginosa W4; conditions: read-out: MIC
From the text: as §1

[34] = tested on: Pseudomonas aeruginosa M1; conditions: read-out: MIC
From the text: as §1

[35] = tested on: Pseudomonas aeruginosa W20; conditions: read-out: MIC
From the text: as §1

[36] = tested on: Pseudomonas aeruginosa C754; conditions: read-out: MIC
From the text: as §1

[37] = tested on: Pseudomonas aeruginosa W24; conditions: read-out: MIC
From the text: as §1

[38] = tested on: Acinetobacter baumannii C427; conditions: Acinetobacter baumannii C427; read-out: Minimum Inhibitory Concentration (MIC)
From the text: as §1

[39] = tested on: Pseudomonas aeruginosa W42; conditions: read-out: MIC
From the text: as §1

[40] = tested on: Acinetobacter baumannii C395; conditions: Acinetobacter baumannii C395; read-out: Minimum Inhibitory Concentration (MIC)
From the text: as §1

| MIC [1] [µg/mL] | MIC [2] [µg/mL] | MIC [3] [µg/mL] | MIC [4] [µg/mL] | MIC [5] [µg/mL] | MIC [6] [µg/mL] | MIC [7] [µg/mL] | MIC [8] [µg/mL] | MIC [9] [µg/mL] | MIC [10] [µg/mL] | MIC [11] [µg/mL] | MIC [12] [µg/mL] | MIC [14] [µg/mL] | MIC [15] [µg/mL] | MIC [16] [µg/mL] | MIC [17] [µg/mL] | MIC [18] [µg/mL] | MIC [19] [µg/mL] | MIC [20] [µg/mL] | MIC [21] [µg/mL] | SMILES | other results |
| --- | --- | --- | --- | --- | --- | --- | --- | --- | --- | --- | --- | --- | --- | --- | --- | --- | --- | --- | --- | --- | --- |
| 2 (≈ 2.82 µM) | 0.5 (≈ 0.704 µM) | 8 (≈ 11.3 µM) | 0.5 (≈ 0.704 µM) | 2 (≈ 2.82 µM) | 4 (≈ 5.64 µM) | 2 (≈ 2.82 µM) | 2 (≈ 2.82 µM) | 4 (≈ 5.64 µM) | 4 (≈ 5.64 µM) | 0.5 (≈ 0.704 µM) | 2 (≈ 2.82 µM) | 1 (≈ 1.41 µM) | 0.5 (≈ 0.704 µM) | 2 (≈ 2.82 µM) | 4 (≈ 5.64 µM) | 2 (≈ 2.82 µM) | 4 (≈ 5.64 µM) | 2 (≈ 2.82 µM) | 2 (≈ 2.82 µM) | CC1(C)[C@H](NC(=O)/C(=N\O[C@@H](COc2ccc3c(c2)CN(C(=N)N[C@@H]2CCCNC2)C3)C(=O)O)c2csc(N)n2)C(=O)N1OS(=O)(=O)O [Compound 41] | MIC [13]: 2 µg/mL (≈ 2.82 µM); MIC [22]: 2 µg/mL (≈ 2.82 µM); MIC [23]: 4 µg/mL (≈ 5.64 µM); MIC [24]: 2 µg/mL (≈ 2.82 µM); MIC [25]: 4 µg/mL (≈ 5.64 µM); MIC [26]: 1 µg/mL (≈ 1.41 µM); MIC [27]: 0.5 µg/mL (≈ 0.704 µM); MIC [28]: 2 µg/mL (≈ 2.82 µM); MIC [29]: 2 µg/mL (≈ 2.82 µM); MIC [30]: 0.5 µg/mL (≈ 0.704 µM); MIC [31]: 2 µg/mL (≈ 2.82 µM); MIC [32]: 4 µg/mL (≈ 5.64 µM); MIC [33]: 0.5 µg/mL (≈ 0.704 µM); MIC [34]: 1 µg/mL (≈ 1.41 µM); MIC [35]: 4 µg/mL (≈ 5.64 µM); MIC [36]: 0.5 µg/mL (≈ 0.704 µM); MIC [37]: 2 µg/mL (≈ 2.82 µM); MIC [38]: 4 µg/mL (≈ 5.64 µM); MIC [39]: 0.5 µg/mL (≈ 0.704 µM); MIC [40]: 2 µg/mL (≈ 2.82 µM) |
| 8 (≈ 11.7 µM) | 1 (≈ 1.46 µM) | 16 (≈ 23.3 µM) | 1 (≈ 1.46 µM) | 8 (≈ 11.7 µM) | > 16 | 8 (≈ 11.7 µM) | 8 (≈ 11.7 µM) | 8 (≈ 11.7 µM) | 8 (≈ 11.7 µM) | 0.25 (≈ 0.365 µM) | 8 (≈ 11.7 µM) | 8 (≈ 11.7 µM) | 1 (≈ 1.46 µM) | 8 (≈ 11.7 µM) | > 16 | 8 (≈ 11.7 µM) | 8 (≈ 11.7 µM) | 8 (≈ 11.7 µM) | 8 (≈ 11.7 µM) | CC1(C)[C@H](NC(=O)/C(=N\O[C@@H](COc2ccc3c(c2)CN(C(=N)NOCCN)C3)C(=O)O)c2csc(N)n2)C(=O)N1OS(=O)(=O)O [Compound 43] | MIC [13]: 8 µg/mL (≈ 11.7 µM); MIC [22]: 8 µg/mL (≈ 11.7 µM); MIC [23]: 16 µg/mL (≈ 23.3 µM); MIC [24]: 8 µg/mL (≈ 11.7 µM); MIC [25]: 8 µg/mL (≈ 11.7 µM); MIC [26]: 8 µg/mL (≈ 11.7 µM); MIC [27]: 1 µg/mL (≈ 1.46 µM); MIC [28]: 8 µg/mL (≈ 11.7 µM); MIC [29]: 8 µg/mL (≈ 11.7 µM); MIC [30]: 1 µg/mL (≈ 1.46 µM); MIC [31]: 8 µg/mL (≈ 11.7 µM); MIC [32]: 8 µg/mL (≈ 11.7 µM); MIC [33]: 0.5 µg/mL (≈ 0.729 µM); MIC [34]: 1 µg/mL (≈ 1.46 µM); MIC [35]: 8 µg/mL (≈ 11.7 µM); MIC [36]: 1 µg/mL (≈ 1.46 µM); MIC [37]: 8 µg/mL (≈ 11.7 µM); MIC [38]: 16 µg/mL (≈ 23.3 µM); MIC [39]: 1 µg/mL (≈ 1.46 µM); MIC [40]: 8 µg/mL (≈ 11.7 µM) |

| SMILES | MIC [1] [µg/mL] | MIC [2] [µg/mL] | MIC [3] [µg/mL] | MIC [4] [µg/mL] | MIC [5] [µg/mL] | MIC [6] [µg/mL] | MIC [7] [µg/mL] | MIC [8] [µg/mL] | MIC [9] [µg/mL] | MIC [10] [µg/mL] | MIC [11] [µg/mL] | MIC [12] [µg/mL] | MIC [14] [µg/mL] | MIC [15] [µg/mL] | MIC [16] [µg/mL] | MIC [17] [µg/mL] | MIC [18] [µg/mL] | MIC [19] [µg/mL] | MIC [20] [µg/mL] | MIC [21] [µg/mL] | other results |
| --- | --- | --- | --- | --- | --- | --- | --- | --- | --- | --- | --- | --- | --- | --- | --- | --- | --- | --- | --- | --- | --- |
| C[C@@H](O)[C@H]1C(=O)N2C(C(=O)O)=C(S[C@@H]3CN[C@H](C(=O)N(C)C)C3)[C@H](C)[C@H]12 [Meropenem, reference compound] | 64 (≈ 167 µM) | 16 (≈ 41.7 µM) | 32 (≈ 83.4 µM) | 16 (≈ 41.7 µM) | 64 (≈ 167 µM) | 64 (≈ 167 µM) | 64 (≈ 167 µM) | 64 (≈ 167 µM) | 32 (≈ 83.4 µM) | 16 (≈ 41.7 µM) | 0.5 (≈ 1.3 µM) | 4 (≈ 10.4 µM) | 4 (≈ 10.4 µM) | < 0.25 | 64 (≈ 167 µM) | 128 (≈ 334 µM) | 64 (≈ 167 µM) | 32 (≈ 83.4 µM) | 64 (≈ 167 µM) | 64 (≈ 167 µM) | MIC [22]: 128 µg/mL (≈ 334 µM); MIC [23]: 64 µg/mL (≈ 167 µM); MIC [24]: 64 µg/mL (≈ 167 µM); MIC [25]: 32 µg/mL (≈ 83.4 µM); MIC [26]: 64 µg/mL (≈ 167 µM); MIC [27]: < 0.25 µg/mL; MIC [28]: 64 µg/mL (≈ 167 µM); MIC [29]: 64 µg/mL (≈ 167 µM); MIC [30]: 16 µg/mL (≈ 41.7 µM); MIC [31]: 64 µg/mL (≈ 167 µM); MIC [32]: 32 µg/mL (≈ 83.4 µM); MIC [33]: 2 µg/mL (≈ 5.22 µM); MIC [34]: 4 µg/mL (≈ 10.4 µM); MIC [35]: 8 µg/mL (≈ 20.9 µM); MIC [36]: < 0.25 µg/mL; MIC [37]: 16 µg/mL (≈ 41.7 µM); MIC [38]: 64 µg/mL (≈ 167 µM); MIC [39]: 1 µg/mL (≈ 2.61 µM) |
